Test systems include NCI-H522; HOP-62; SR; SNB-75; SK-MEL-2; SK-OV-3; 786-0; IGROV-1; UO-31; K562; Malme-3M; UACC-257; SK-MEL-28; OVCAR-8; HT-29; OVCAR-5; SNB-19; HCT-15; ACHN; EKVX.
Assay in all cases: NCI tumour cell line growth inhibition, 48 h

We go through two compounds from ChEMBL document CHEMBL1201862, “PubChem BioAssay data set” (2004).

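A five-concentration, 48-hour dose response in 96-well plates underlies each endpoint, interpolated linearly between surrounding concentrations. At the GI50, growth is halved.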 The source made the active and inactive calls. Cut-off read from the data, not from the text of the source: active = GI50 up to about 1.1 µM and inactive = higher.

As for `CC1=NC(=O)CNN1C1=NNC2(C(=O)N1)c1ccccc1-c1ccccc12`, the GI50 with NCI-H522 is > 100 µM (inactive); with HOP-62, > 100 µM (inactive); in the experiment on SR, 55 µM (inactive); in the experiment on SNB-75 it was > 100 µM (inactive); with SK-MEL-2 it was > 100 µM (inactive); with SK-OV-3, > 100 µM (inactive). The GI50 in the experiment on 786-0, in the experiment with IGROV-1, with UO-31, in the experiment on K562, in the experiment with Malme-3M and with UACC-257 was > 100 µM (inactive) throughout. Moreover, the GI50 was > 100 µM (inactive) with SK-MEL-28; > 100 µM (inactive) in the experiment with OVCAR-8; > 100 µM (inactive) in the experiment with HT-29; > 100 µM (inactive) with OVCAR-5; > 100 µM (inactive) with SNB-19; over 100 µM with HCT-15. Also, the GI50 with ACHN and with EKVX was > 100 µM (inactive) throughout.

For the compound `CSC1(SC)N2Cc3ccccc3N=C2C1(c1ccccc1)c1ccccc1`, the GI50 in the experiment on NCI-H522 was 5.96 µM (inactive); with HOP-62 it was > 44.9 µM (inactive); in the experiment on SR, 1.95 µM (inactive); in the experiment on SNB-75, > 100 µM (inactive); with SK-MEL-2, 12.7 µM (inactive); in the experiment with SK-OV-3, > 54.5 µM (inactive). Also, the GI50 with 786-0 is 22.5 µM (inactive); in the experiment with IGROV-1 it was 24.2 µM (inactive); with UO-31, 24.8 µM (inactive); with K562, 10.1 µM (inactive); in the experiment on Malme-3M, 8.22 µM (inactive); in the experiment with UACC-257, 13 µM (inactive). For the same compound, the GI50 with SK-MEL-28 is 38.1 µM (inactive); with OVCAR-8, 29.2 µM (inactive); in the experiment with HT-29 it was 11.6 µM (inactive); in the experiment on OVCAR-5, > 40.1 µM (inactive); in the experiment with SNB-19, > 48.3 µM (inactive); in the experiment with HCT-15, 12.1 µM. In addition, the GI50 with ACHN was 14.1 µM (inactive); with EKVX, 6.67 µM (inactive).
